# Measurements as given in patent US20170296573A1, “ANTITUMOR DRUG COMPRISING BETA-CYCLODEXTRIN” (JRC G. K., priority 2014, published 2017).
# Legend:
# [1] = system: AKT; experiment: Example 2 Method A: AKT phosphorylation in RCC4 cells stimulated with IGF1, serum free; type: cell-based; settings: 10 mM 2DG 2 hours, 10 mM bCD (MBCD), 0-30 ng/ml IGF1 5 minutes
# Experimental: We ran 20 μg of proteins per lane for western blots. We ran 8, 10, 12.5 and 15% gels depending on the size of proteins being detected by western blots. When there are two proteins having a similar size, gel is flowed in each protein to make western blot analysis about each protein. The immunoprecipitation was undergone by adding 200 μg of protein from solubilized cells and Protein G Sepharose or Protein A Sepharose (Sigma P3296/P9242) pre-conjugated with immunoprecipitation antibody to a buffer for immunoprecipitation, and slowly rotating the tube containing the sample buffer at 4° C. overnight. The buffer for immunoprecipitation comprises 20 mM Tris Ph 7.5, 1% Triton-X100, 150 mM NaCl, phosphatase inhibitor cocktail (Cell Signaling (#58709S)), and 10% glycerol. Next morning, the content in the tube was centrifuged. The precipitate was washed with the same buffer twice and dissolved in SDS buffer. The precipitate in the solution was separated with 15% SDS-PAGE or 12.5% SDS-PAGE and analyzed by Western blotting.
# The bCD used herein was MBCD.
# RCC4 cells were incubated in serum free media for 2 hours with or without 10 mM 2DG. In the last hour, 10 mM bCD was added to each one subset of the cells treated/untreated with 2DG. Then 0-30 ng/ml IGF1 was added and the incubation continued for 5 minutes before the cells were harvested and analyzed by Western blotting.
# [2] = system: caspase 9; experiment: Example 7: caspase 9 cleavage in RCC4 cells, Western blot; type: cell-based
# Experimental: (§1) We ran 20 μg of proteins per lane for western blots. We ran 8, 10, 12.5 and 15% gels depending on the size of proteins being detected by western blots. When there are two proteins having a similar size, gel is flowed in each protein to make western blot analysis about each protein. The immunoprecipitation was undergone by adding 200 μg of protein from solubilized cells and Protein G Sepharose or Protein A Sepharose (Sigma P3296/P9242) pre-conjugated with immunoprecipitation antibody to a buffer for immunoprecipitation, and slowly rotating the tube containing the sample buffer at 4° C. overnight. The buffer for immunoprecipitation comprises 20 mM Tris Ph 7.5, 1% Triton-X100, 150 mM NaCl, phosphatase inhibitor cocktail (Cell Signaling (#58709S)), and 10% glycerol. […] The precipitate in the solution was separated with 15% SDS-PAGE or 12.5% SDS-PAGE and analyzed by Western blotting.
# (§2) (A and B) RCC4 cells were treated with 2DG, bCD, 2DG +bCD, or left untreated as done in Example 6. Approximately 20 μg of the whole cell lysates (WCL) were analyzed by western blotting. Bak- and Bcl-xL-bound proteins were immune-precipitated from approximately 200 μg of cell lysates and analyzed by western blotting. (C) 3 μM ABT with or without the 20 μM pan-caspase inhibitor z-VAD was added to the cells pre-treated with the combination of 2DG and bCD over 2 hours, and analyzed by Western blotting for caspase 9. […]
# [3] = molecular target: Bak-Bcl-xL complex (Homo sapiens, UniProt Q07817); experiment: Example 7: immunoprecipitation of Bak-bound proteins in RCC4 cells, Bcl-xL; type: cell-based; settings: RCC4 cells pre-treated with 2DG and bCD, 3 μM ABT
# Experimental: as §1, §2
# [4] = system: cytochrome c; experiment: Example 7: cytochrome c release assay in RCC4 cells; type: cell-based; settings: RCC4 cells pre-treated with 2DG-bCD
# Experimental: RCC4 cells grown and treated on glass cover slips were first fixed with 3.7% formaldehyde in PBS for 10 minutes. Then the cover slips were briefly exposed to 100% methanol kept in a −20° C. freezer. Cover slips were incubated with 10% serum in PBS before being stained with mouse anti-cytochrome c antibody overnight. Next morning, the cover slips were washed and blocked with 10% serum in PBS for 30 minutes. Then they were exposed to secondary anti-mouse antibody conjugated with AF488 for 30 minutes. They were washed again and exposed to propidium iodide (1 μg/mL in PBS) for 15 minutes to stain DNA in the nucleus before being washed and mounted on the glass slides. We used a Keyence BZ9000 microscope with a 100× objective lens for observation. […] (E) RCC4 cells treated with 2DG-bCD (left panel), RCC4 cells treated with 2DG-bCD-ABT (middle panel), and RCC4 cells treated with 2DG-bCD-ABT in the presence of 20 μM pan-caspase inhibitor z-VAD (right panel) were immunostained using anti-cytochrome c antibody and GFP-conjugated anti-mouse antibody. Nuclei were stained red with propidium iodide.
# [5] = mice, injected, four hours later; cited from earlier work
# [6] = system: UOK121 cells; experiment: Example 10 Test B: cyclodextrin with 2DG-ABT in UOK121 cells, live cells by trypan-blue dye exclusion; type: cell-based, human; settings: 10 mM 2DG, 10 mM cyclodextrin, 0.3 μM ABT-263, 25 mM glucose
# Experimental: Dead and live cells were counted by trypan-blue dye exclusion methods. These experiments were done in triplicate, and the error bars indicate the standard deviation.
# (Test A) UOK121 cells were incubated in 10% serum medium with 5 mM or 10 mM α-, β-, and γ-cyclodextrins for 45 minutes. The same medium without any cyclodextrin was also incubated as a control. The cells were harvested and analyzed by Western Blots for the phosphorylation of AKT and ERK1/2 as an indicator of the AKT and ERK1/2 activations. (Test B) 10 mM 2DG was added to a medium of U0K121 cells in the presence of 25 mM glucose, and the medium was incubated for 1.5 hours. To the medium was added 10 mM α-, β-, or γ-cyclodextrin, and the medium was incubated for 30 minutes. Then, 0.3 μM ABT-263 was added thereto, and the medium was further incubated for 2 hours. Separately, a control that includes only α-, β-, or γ-cyclodextrin without 2DG or ABT-263, and another control that includes neither α-, β-, or γ-cyclodextrin, nor 2DG or ABT-263 were prepared. 2.5 hours after adding each cyclodextrin (i.e., 2 hours after adding ABT-263), all the cells were washed with the medium twice, and next day the live cells were counted by trypan-blue dye exclusion assay.
# Sequence of Bak-Bcl-xL complex (Q07817 whole entry, one chain of several): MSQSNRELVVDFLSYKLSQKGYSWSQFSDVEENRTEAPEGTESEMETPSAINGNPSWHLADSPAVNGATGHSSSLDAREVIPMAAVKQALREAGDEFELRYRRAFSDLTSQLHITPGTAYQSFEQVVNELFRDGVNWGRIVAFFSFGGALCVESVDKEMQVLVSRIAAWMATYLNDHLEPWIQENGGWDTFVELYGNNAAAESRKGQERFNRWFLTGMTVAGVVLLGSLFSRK
smiles,measurement,setting,value
"O=CC[C@@H](O)[C@H](O)[C@H](O)CO [2DG, 2-deoxyglucose]",AKT phosphorylation,[1],increasing the phosphorylation of AKT
"CC1(C)CCC(c2ccc(Cl)cc2)=C(CN2CCN(c3ccc(C(=O)NS(=O)(=O)c4ccc(N[C@H](CCN5CCOCC5)CSc5ccccc5)c(S(=O)(=O)C(F)(F)F)c4)cc3)CC2)C1 [ABT, ABT-263]",caspase 9 activation,"[2]; RCC4 cells pre-treated with 2DG and bCD, 3 μM ABT",activated
same,time to full caspase 9 activation,"[2]; after ABT addition, RCC4 cells pre-treated with 2DG-bCD",≤ 2 h
same,Bak-Bcl-xL complex,[3],caused the dissociation
same,release of cytochrome c from mitochondria,[4]; with or without 20 μM z-VAD,took place only after the addition of ABT
same,time to full release of cytochrome c,[4]; after ABT addition,≤ 2 h
"CC(O)COC[C@H]1O[C@@H]2O[C@H]3[C@H](O)[C@@H](O)[C@@H](O[C@H]4[C@H](O)[C@@H](O)[C@@H](O[C@H]5[C@H](O)[C@@H](O)[C@@H](O[C@H]6[C@H](O)[C@@H](O)[C@@H](O[C@H]7[C@H](O)[C@@H](O)[C@@H](O[C@H]8[C@H](O)[C@@H](O)[C@@H](O[C@H]1[C@H](O)[C@H]2O)O[C@@H]8COCC(C)O)O[C@@H]7COCC(C)O)O[C@@H]6COCC(C)O)O[C@@H]5COCC(C)O)O[C@@H]4COCC(C)O)O[C@@H]3COCC(C)O (stereo partly drawn) [HPBCD, (2-hydroxypropyl)-β-cyclodextrin]",amount that remains in circulation,[5],about 50%
OC[C@H]1O[C@@H]2O[C@H]3[C@H](O)[C@@H](O)[C@@H](O[C@H]4[C@H](O)[C@@H](O)[C@@H](O[C@H]5[C@H](O)[C@@H](O)[C@@H](O[C@H]6[C@H](O)[C@@H](O)[C@@H](O[C@H]7[C@H](O)[C@@H](O)[C@@H](O[C@H]1[C@H](O)[C@H]2O)O[C@@H]7CO)O[C@@H]6CO)O[C@@H]5CO)O[C@@H]4CO)O[C@@H]3CO [α-cyclodextrin],enhancement of the combination effect of 2DG-ABT (live cells),[6],little enhanced
